The values below come from patent US20160075653A1, “NEMATICIDAL N-(PHENYLCYCLOALKYL)CARBOXAMIDES AND N-(PHENYLCYCLOALKYL)THIOCARBOXAMIDES” (BAYER CROPSCIENCE AKTIENGESELLSCHAFT, priority 2013, published 2016).

One data set has as its system Meloidogyne incognita. The experiment in a line: Meloidogyne incognita test (MELGIN), gall formation on salad seedlings. The class given is in vivo. The note with it: application rate 20 ppm, after 14 days. On the procedure: Meioidovnve incomita—Test (MELGIN)
Solvent: 125.0 parts by weight of acetone
To produce a suitable preparation of active compound, 1 part by weight of active compound is mixed with the stated amount of solvent, and the concentrate is diluted with water to the desired concentration.
Vessels are filled with sand, a solution of the active ingredient, a suspension containing eggs and larvae of the southern root-knot nematode (Meloidogyne incognita) and salad seeds. The salad seeds germinate and the seedlings grow. Galls develop in the roots.
After 14 days the nematicidal activity is determined on the basis of the percentage of gall formation. 100% means that no galls were found; 0% means the number of galls found on the roots of the treated plants was equal to that in untreated control plants.

Data set [1] is described as follows: Measurement of log P values by HPLC on reversed phase columns (methods [a] pH 2.3, [b] pH 2.7, [c] pH 7.8). The note with it: for chromatographic logP: reversed phase HPLC columns. Format: physicochemical. An outline of the steps: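 Retention times were converted to log P by linear interpolation between linear alkan-2-one standards (3 to 16 carbons) of known log P. Eluents, each with 10% to 95% acetonitrile gradient: phosphoric acid 0.1% at pH 2.3 [a]; formic acid 0.1% at pH 2.7, LC-MS [b]; ammonium hydrogen carbonate 0.001 molar at pH 7.8, LC-MS [c].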

Setting [2] is: HPLC on reversed phase columns, method [b], pH 2.7.
Setting [3] is: HPLC reversed phase, method [b] (pH 2.7).
Setting [4] is: HPLC on reversed phase column, method [b], pH 2.7.
Setting [5] is: HPLC on reversed phase column, method [c], pH 7.8.
The mark [6] stands for this setting: pH 2.7, HPLC on reversed phase columns, method [b] (pH 2.7), read-out: logP.

Read-outs that look alike come from different tables or passages of the source.

For the molecule `CSc1ccccc1C(=O)N[C@@H]1CCC[C@@H]1c1ccc(F)c(F)c1` (relative stereo) [Compound 82], the “nematicidal activity (percentage of gall formation; 100% = no galls)” value with Meloidogyne incognita was determined as 90%. In addition, in data set [1] (setting [2]), the logP is 3.35^[b].
Consider `CCCOc1ccccc1C(=O)N[C@@H]1CCC[C@@H]1c1ccc(F)c(F)c1` (relative stereo) [Compound 86], for which, in the data set with Meloidogyne incognita, the “nematicidal activity (percentage of gall formation; 100% = no galls)” value was determined as 90%. Also, the logP in data set [1] (setting [2]) was 4.19^[b].
Regarding `CCOc1ccccc1C(=O)N[C@@H]1CCC[C@@H]1c1ccc(F)c(F)c1` (relative stereo) [Compound 115], the “nematicidal activity (percentage of gall formation; 100% = no galls)” value in the data set with Meloidogyne incognita is given as 90%. For the same molecule, in data set [1] (setting [2]), the logP is 3.80^[b].
Consider `O=C(N[C@@H]1CC[C@@H]1c1ccccc1Cl)c1ncccc1Cl` (relative stereo) [Compound 247, cis-3-chloro-N-[2-(2-chlorophenyl)cyclobutyl]pyridine-2-carboxamide], for which, in the data set with Meloidogyne incognita, the “nematicidal activity (percentage of gall formation; 100% = no galls)” value was 100%. Further, the chromatographic logP in data set [1] (HPLC-MS, method letter not given, read-out: log P) amounted to 2.79; in data set [1] (pH 2.7, HPLC reversed phase, method [b] (pH 2.7), read-out: logP) it was 2.79.
Consider `O=C(N[C@@H]1CC[C@@H]1c1ccccc1Cl)c1ccccc1Cl` (relative stereo) [Compound 248], for which, in the data set on Meloidogyne incognita, the “nematicidal activity (percentage of gall formation; 100% = no galls)” value came to 90%. For the same molecule, the logP in data set [1] (setting [3]) is 3.08^[b].
On the same counts, the results for `O=C(N[C@@H]1CC[C@@H]1c1ccccc1Cl)c1ccccc1I` (relative stereo) [Compound 250] are 100% and 3.23^[b].
As to `O=C(N[C@@H]1CC[C@@H]1c1ccccc1Cl)c1ccccc1C(F)(F)F` (relative stereo) [Compound 251], the “nematicidal activity (percentage of gall formation; 100% = no galls)” value in the data set with Meloidogyne incognita was 100%. The logP in data set [1] (setting [3]) is 3.23^[b].
Consider `O=C(N[C@@H]1CC[C@@H]1c1ccccc1Cl)c1c(F)cccc1F` (relative stereo) [Compound 252], for which the “nematicidal activity (percentage of gall formation; 100% = no galls)” value with Meloidogyne incognita is given as 100%. The logP in data set [1] (setting [3]) is 2.86^[b].
Regarding `O=C(N[C@@H]1CC[C@@H]1c1ccccc1Cl)c1ccccc1Br` (relative stereo) [Compound 253], the “nematicidal activity (percentage of gall formation; 100% = no galls)” value in the data set with Meloidogyne incognita amounted to 100%. In addition, the logP in data set [1] (setting [3]) is 3.18^[b].
On the same counts, the results for `O=C(N[C@@H]1CC[C@@H]1c1ccccc1Cl)c1cccnc1C(F)(F)F` (relative stereo) [Compound 254] are 90% and 2.69^[b].
The corresponding values for `O=C(N[C@@H]1CC[C@H]1c1ccc(Cl)cc1Cl)c1ccccc1Cl` (relative stereo) [Compound 256] are 90% and 3.90^[b].
Consider `O=C(NC1CC1c1ccccc1)c1cccnc1C(F)F` (centres unmarked) [Compound 225], for which the “nematicidal activity (percentage of gall formation; 100% = no galls)” value with Meloidogyne incognita came out at 90%.
Consider `O=C(NC1CCC1c1ccccc1C(F)(F)F)c1nccnc1C(F)(F)F` (centres unmarked) [Example 604], for which the logP in data set [1] (setting [4]) was 3.18^[b]; in data set [1] (setting [5]), 3.10^[c];.
Turning to `O=C(NC1CCC1c1ccccc1C(F)(F)F)c1ncccc1Br` (centres unmarked) [Example 605], the logP in data set [1] (setting [4]) was 3.17^[b]; in data set [1] (setting [5]) it was 3.10^[c];.
On the same counts, the results for `CC1=C(C(=O)NC2CCC2c2ccccc2C(F)(F)F)S(=O)(=O)CCO1` (centres unmarked) [Example 606] are 2.49^[b] and 2.45^[c];.
In the case of `O=C(N[C@@H]1CC[C@H]1c1ccccc1C(F)(F)F)c1cccnc1Cl` [Example 620], in data set [1] (pH 2.7, HPLC on reversed phase column, method [b], pH 2.7, read-out: logP), the chromatographic logP was determined as 2.79.
Take `O=C(NC1CCC1c1ccccc1C(F)(F)F)c1nccnc1C(F)(F)F` (centres unmarked) [Example 687]: the logP is 3.31^[b] in data set [1] (setting [4]) and 3.25^[c]; in data set [1] (setting [5]).
The corresponding values for `O=C(NC1CCC1c1ccccc1C(F)(F)F)c1ncccc1Br` (centres unmarked) [Example 691] are 3.34^[b] and 3.27^[c];.
Regarding `O=C(NC1CCC1c1ccc(Cl)cc1C(F)(F)F)c1sccc1I` (centres unmarked) [Example 710], the logP in data set [1] (setting [4]) is 4.55^[b].
On to `O=C(NC1CCC1c1ccc(Cl)cc1C(F)(F)F)c1sccc1I` (centres unmarked) [Example 711], for which, in data set [1] (setting [4]), the logP is 4.28^[b].
Consider `Cn1cc(C(=O)NC2CCC2c2ccc(Cl)cc2C(F)(F)F)c(C(F)F)n1` (centres unmarked) [Example 718], for which the logP in data set [1] (setting [2]) was 3.41^[b].
Same read-out and setting: next, `Cn1cc(C(=O)NC2CCC2c2ccc(Cl)cc2C(F)(F)F)c(C(F)F)n1` (centres unmarked) [Example 719]: 3.17^[b]; `O=C(NC1CCC1c1ccc(Cl)cc1C(F)(F)F)c1cccnc1C(F)(F)F` (centres unmarked) [Example 720]: 3.60^[b]; `O=C(NC1CCC1c1ccc(Cl)cc1C(F)(F)F)c1cccnc1C(F)(F)F` (centres unmarked) [Example 721]: 3.36^[b].
On the same count and under the same terms, next, `O=C(NC1CCC1c1ccc(Cl)cc1C(F)(F)F)c1ccccc1Br` (centres unmarked) [Example 722]: 4.08^[b]; `O=C(NC1CCC1c1ccc(Cl)cc1C(F)(F)F)c1ccccc1Br` (centres unmarked) [Example 723]: 3.80^[b]; `O=C(NC1CCC1c1c(Cl)cccc1Cl)c1cccnc1` (centres unmarked) [Example 724]: 2.17^[b].
Take `O=C(NC1CCC1c1c(Cl)cccc1Cl)c1cccnc1Cl` (centres unmarked) [Example 725]: the logP in data set [1] (setting [2]) is 2.79^[b].
Consider `Cn1cc(C(=O)NC2CCC2c2c(Cl)cccc2Cl)c(C(F)F)n1` (centres unmarked) [Example 726], for which, in data set [1] (setting [2]), the logP is 2.90^[b].
Same read-out and setting: the result for `O=C(NC1CCC1c1c(Cl)cccc1Cl)c1c(F)cccc1F` (centres unmarked) [Example 727] reads 3.33^[b]; that for `O=C(NC1CCC1c1c(Cl)cccc1Cl)c1ccccc1` (centres unmarked) [Example 728], 3.30^[b].
With `O=C(NC1CCC1c1c(Cl)cccc1Cl)c1cccc(Cl)c1` (centres unmarked) [Example 729], the logP in data set [1] (setting [2]) was 3.87^[b].
On the same count and under the same terms, next, `Cc1nc(C(F)(F)F)c(C(=O)NC2CCC2c2ccc(Cl)cc2C(F)(F)F)s1` (centres unmarked) [Example 730]: 4.03^[b]; `Cc1nc(C(F)(F)F)c(C(=O)NC2CCC2c2ccc(Cl)cc2C(F)(F)F)s1` (centres unmarked) [Example 731]: 3.75^[b].
With `O=C(N[C@@H]1CC[C@H]1c1ccc(Cl)cc1C(F)(F)F)c1cccnc1` [Example 732], the chromatographic logP in data set [1] (setting [6]) stood at 2.74.
As for `O=C(N[C@@H]1CC[C@@H]1c1c(Cl)cccc1Cl)c1ccccc1[N+](=O)[O-]` [Example 733], the chromatographic logP in data set [1] (setting [6]) came to 3.08.
On the same count and under the same terms, next, `O=C(N[C@@H]1CC[C@@H]1c1c(Cl)cccc1Cl)c1nccnc1Cl` [Example 734]: 3.07; `O=C(N[C@@H]1CC[C@@H]1c1c(Cl)cccc1Cl)c1ccccc1Br` [Example 735]: 3.6.
Turning to `O=C(N[C@@H]1CC[C@@H]1c1c(Cl)cccc1Cl)c1ccccc1C(F)(F)F` [Example 736], the chromatographic logP in data set [1] (setting [6]) stood at 3.71.
Still for that read-out and setting: the result for `O=C(N[C@@H]1CC[C@@H]1c1c(Cl)cccc1Cl)c1ccccc1I` [Example 737] reads 3.72.
Turning to `O=C(N[C@@H]1CC[C@@H]1c1c(Cl)cccc1Cl)c1ccc(Cl)cc1` [Example 738], in data set [1] (setting [6]), the chromatographic logP was 3.36.
In the case of `O=C(N[C@@H]1CC[C@@H]1c1ccc(Cl)cc1C(F)(F)F)c1cccnc1Cl` [Example 739], in data set [1] (setting [6]), the chromatographic logP is 3.09.
`Cc1nc(C(F)(F)F)c(C(=O)N[C@@H]2CC[C@@H]2c2c(Cl)cccc2Cl)s1` [Example 740]: in data set [1] (setting [6]), the chromatographic logP stood at 3.6.
Still for that read-out and setting: the result for `O=C(N[C@@H]1CC[C@@H]1c1c(Cl)cccc1Cl)c1ccc(Cl)cc1Cl` [Example 741] reads 4.1; that for `O=C(N[C@@H]1CC[C@@H]1c1c(Cl)cccc1Cl)c1ccccc1Cl` [Example 742], 3.56; that for `O=C(N[C@@H]1CC[C@@H]1c1c(Cl)cccc1Cl)c1ncccc1Cl` [Example 743], 3.32.
For `O=C(N[C@@H]1CC[C@@H]1c1c(Cl)cccc1Cl)c1ncc(C(F)(F)F)cc1Cl` [Example 744], in data set [1] (setting [6]), the chromatographic logP is 4.28.
The same measure, in the same setting: next, `O=C(N[C@@H]1CC[C@@H]1c1c(Cl)cccc1Cl)c1sccc1I` [Example 745]: 4.21.
Take `O=C(N[C@@H]1CC[C@@H]1c1c(Cl)cccc1Cl)c1cccnc1C(F)(F)F` [Example 746]: in data set [1] (setting [6]), the chromatographic logP was 2.95.
On the same count and under the same terms, next, `Cc1nc(C(F)(F)F)c(C(=O)N[C@@H]2CCC[C@@H]2c2ccc(C(F)(F)F)cc2)s1` [Example 747]: 3.71; `O=C(N[C@@H]1CCC[C@@H]1c1ccc(C(F)(F)F)cc1)c1nccnc1Cl` [Example 748]: 3.2; `O=C(N[C@@H]1C[C@]1(F)c1ccc(Cl)cc1)c1sccc1I` [Example 749]: 3.15.
Still for that read-out and setting: the result for `O=C(N[C@@H]1C[C@]1(F)c1ccc(Cl)cc1)c1ccccc1Br` [Example 751] reads 2.84; that for `O=C(N[C@@H]1C[C@]1(F)c1ccc(Cl)cc1)c1ccccc1Cl` [Example 752], 2.78; that for `O=C(N[C@@H]1C[C@]1(F)c1ccc(Cl)cc1)c1ccccc1I` [Example 753], 2.98.
For `O=C(NC1CC1(F)c1ccc(Cl)cc1)c1ccccc1C(F)(F)F` (centres unmarked) [Example 754], the logP in data set [1] (setting [2]) was 3.24^[b].
For `O=C(NC1CC1(F)c1ccc(Cl)cc1)c1ccccc1C(F)(F)F` (centres unmarked) [Example 755], the logP in data set [1] (setting [2]) was 3.03^[b].
